Among the data in PubChem BioAssay AID624436 (The Scripps Research Institute Molecular Screening Center, 2012) are inhibition values, retold here.

Broadly, the inhibition is the share of the control response that was lost under treatment.

The source made the active and inactive calls.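 The calls were made as follows: active = no compound was called active, only the inactive limit is stated; inactive = inhibition below 30% at 50 µM.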

The assay has as its target Serine/threonine-protein phosphatase PP1-alpha catalytic subunit (Homo sapiens) (UniProt P62136). The experiment in a line: inhibitors of PP1 catalytic subunit activity – biochemical, OMFP substrate, fluorescence, powder samples, round 5, selectivity assay for PP5 inhibitor project, late-stage follow-up (AID 624436). To be noted: purified PP1alpha, OMFP dephosphorylation fluorescence; at 50 µM; stronger effect = higher value.

Sequence of Serine/threonine-protein phosphatase PP1-alpha catalytic subunit (Homo sapiens) (P62136 whole entry, looked up): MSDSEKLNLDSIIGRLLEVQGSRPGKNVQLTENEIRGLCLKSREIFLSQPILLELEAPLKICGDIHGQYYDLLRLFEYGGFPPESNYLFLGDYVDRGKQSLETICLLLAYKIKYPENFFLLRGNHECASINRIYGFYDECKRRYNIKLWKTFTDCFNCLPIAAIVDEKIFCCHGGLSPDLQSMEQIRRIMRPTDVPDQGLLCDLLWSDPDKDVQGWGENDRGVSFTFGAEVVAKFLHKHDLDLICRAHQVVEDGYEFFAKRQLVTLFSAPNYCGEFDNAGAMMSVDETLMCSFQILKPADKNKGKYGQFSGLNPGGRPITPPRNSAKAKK

Turning to `CC(C)c1ccccc1-c1n[nH]nc1C(=O)O`, the inhibition was 3.75% (inactive).

As for `Cc1ccccc1-c1n[nH]nc1C(=O)O`, the inhibition was 10.4% (inactive).

As for `O=C(O)c1n[nH]nc1-c1ccccn1`, the inhibition was 8.42% (inactive).

Consider `CC(C)Oc1ccccc1-c1n[nH]nc1C(=O)O`, for which the inhibition is 9.97% (inactive).

As to `O=C(O)c1n[nH]nc1-c1ccccc1C(F)(F)F`, the inhibition was 7% (inactive).

With `O=C(O)c1[nH]ccc1-c1ccccc1`, the inhibition is 4.43% (inactive).

For the compound `CCc1ccccc1-c1n[nH]nc1C(=O)O`, the inhibition is 2.41% (inactive).

With `CCOc1ccccc1-c1n[nH]nc1C(=O)O`, the inhibition was 15.5% (inactive).

Turning to `O=C(O)c1n[nH]nc1-c1ccccc1-c1ccccc1`, the inhibition was 0.415% (inactive).

For the compound `Cc1cccc(C)c1-c1n[nH]nc1C(=O)O`, the inhibition was 6.84% (inactive).

In the case of `O=C(O)c1n[nH]nc1-c1cccnc1`, the inhibition was 1.43% (inactive).
